# Measured values taken from patent US20220265612A1, “CARDIAC SARCOMERE INHIBITOR ORAL FORMULATIONS” (Cytokinetics, Inc., priority 2019, published 2022).
# How the values were obtained:
# [1] = target: T1, bovine cardiac myofibrils (Bos taurus, UniProt Q9BE39); experiment: Skinned bovine cardiac myofibril ATPase assay (PK/LDH-coupled); format: biochemical; conditions: myofibril ATPase at Ca2+ giving 75% activation (pCa75)
# T1 construct: full-length cardiac myosin in the context of the native sarcomere; from tissue; host or cells: bovine cardiac left ventricular tissue, detergent-skinned (Triton X-100) myofibrils
# Excerpt: Bovine cardiac myofibrils were obtained by homogenizing bovine cardiac left ventricular tissue in the presence of a detergent such as triton X-100. Such treatment removes membranes and a majority of the soluble cytoplasmic proteins but leaves intact the cardiac sarcomeric acto-myosin apparatus. Myofibril preparations retain the ability to hydrolyze ATP in a Ca^2+ regulated manner. […] This assay regenerates myosin-produced ADP into ATP by oxidizing NADH, producing an absorbance change at 340 nm.
# [2] = system: rat cardiac contractility; experiment: Echocardiography assessment of cardiac contractility, oral gavage; format: in vivo, Sprague Dawley rats; conditions: oral dosing, estimated value
# Method: Assessment of in vivo cardiac function by echocardiography was performed in male Sprague Dawley rats under isoflurane (1-3%) anesthesia. […] In vivo fractional shortening was determined by M-mode image analysis with the following calculation: ((End diastolic diameter−end systolic diameter)/end diastolic diameter×100). […] During infusion, M-mode images were taken at 5 minute intervals. The infusion stopped when fractional shortening reached up to a 60% reduction from baseline. […] Data was reported as an estimated IC50 value, which is the concentration at which fractional shortening is 50% of the pre-dose baseline contractility.
# For oral dosing studies, three pre-dose baseline M-Mode images were taken at 1 minute intervals prior to compound administration. […] Rats were lightly anesthetized for M-Mode echocardiography measurements at select time points over a 24 hour period. Different dose levels were evaluated for (R)-N-(5-(5-ethyl-1,2,4-oxadiazol-3-yl)-2,3-dihydro-1H-inden-1-yl)-1-methyl-1H-pyrazole-4-carboxamide. The compound effect on cardiac fractional shortening at the highest dose evaluated is presented in Table D as a percent reduction of baseline fractional shortening (=100%).
# T1 sequence (Q9BE39 whole entry): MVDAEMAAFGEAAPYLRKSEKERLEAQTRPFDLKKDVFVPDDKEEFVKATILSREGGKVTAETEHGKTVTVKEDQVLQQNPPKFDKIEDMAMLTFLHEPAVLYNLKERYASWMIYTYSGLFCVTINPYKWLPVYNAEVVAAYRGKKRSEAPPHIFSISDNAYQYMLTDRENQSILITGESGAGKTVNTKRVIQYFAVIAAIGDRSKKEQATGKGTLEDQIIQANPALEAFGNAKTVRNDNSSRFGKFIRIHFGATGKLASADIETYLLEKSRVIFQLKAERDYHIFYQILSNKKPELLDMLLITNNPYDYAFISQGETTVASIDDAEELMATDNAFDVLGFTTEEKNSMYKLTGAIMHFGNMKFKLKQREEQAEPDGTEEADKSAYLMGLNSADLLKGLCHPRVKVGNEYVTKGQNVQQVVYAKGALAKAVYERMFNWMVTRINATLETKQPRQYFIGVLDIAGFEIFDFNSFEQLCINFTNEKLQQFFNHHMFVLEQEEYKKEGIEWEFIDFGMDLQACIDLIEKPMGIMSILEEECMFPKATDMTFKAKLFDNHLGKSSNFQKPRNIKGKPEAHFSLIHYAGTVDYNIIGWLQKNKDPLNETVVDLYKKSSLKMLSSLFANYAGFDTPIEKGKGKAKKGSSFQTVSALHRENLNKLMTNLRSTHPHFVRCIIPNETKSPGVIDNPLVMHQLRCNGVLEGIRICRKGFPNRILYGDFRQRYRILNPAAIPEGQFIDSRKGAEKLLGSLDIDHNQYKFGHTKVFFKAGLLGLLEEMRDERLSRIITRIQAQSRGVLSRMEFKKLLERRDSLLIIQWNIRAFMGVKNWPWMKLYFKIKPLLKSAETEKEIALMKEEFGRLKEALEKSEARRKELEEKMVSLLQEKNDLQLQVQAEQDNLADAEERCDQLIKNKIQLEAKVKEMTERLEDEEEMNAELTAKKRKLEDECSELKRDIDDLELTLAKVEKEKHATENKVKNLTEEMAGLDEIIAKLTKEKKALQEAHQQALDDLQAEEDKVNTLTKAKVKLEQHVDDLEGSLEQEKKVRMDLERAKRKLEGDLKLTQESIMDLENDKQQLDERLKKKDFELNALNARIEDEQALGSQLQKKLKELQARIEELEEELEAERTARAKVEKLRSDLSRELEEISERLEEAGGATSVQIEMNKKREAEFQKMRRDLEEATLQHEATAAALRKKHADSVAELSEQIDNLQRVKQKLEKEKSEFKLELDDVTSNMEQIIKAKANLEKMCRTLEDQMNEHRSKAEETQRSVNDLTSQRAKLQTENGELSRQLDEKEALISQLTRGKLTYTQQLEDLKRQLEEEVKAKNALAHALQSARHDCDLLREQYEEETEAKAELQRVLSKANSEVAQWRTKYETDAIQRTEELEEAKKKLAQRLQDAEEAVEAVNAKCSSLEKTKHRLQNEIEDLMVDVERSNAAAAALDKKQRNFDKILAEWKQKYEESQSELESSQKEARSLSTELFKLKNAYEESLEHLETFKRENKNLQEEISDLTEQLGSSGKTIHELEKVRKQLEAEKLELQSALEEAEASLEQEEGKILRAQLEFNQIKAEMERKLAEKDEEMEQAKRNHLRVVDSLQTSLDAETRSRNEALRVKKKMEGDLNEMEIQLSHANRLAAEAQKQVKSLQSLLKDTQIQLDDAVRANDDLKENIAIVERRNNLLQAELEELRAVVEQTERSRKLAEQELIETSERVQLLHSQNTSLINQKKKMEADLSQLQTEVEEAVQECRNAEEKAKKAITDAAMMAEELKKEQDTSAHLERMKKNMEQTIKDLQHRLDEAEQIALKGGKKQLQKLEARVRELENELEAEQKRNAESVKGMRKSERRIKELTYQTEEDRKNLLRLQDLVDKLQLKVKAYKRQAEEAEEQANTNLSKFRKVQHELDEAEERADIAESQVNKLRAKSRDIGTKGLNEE
# T1 sequence (P85100 whole entry partner): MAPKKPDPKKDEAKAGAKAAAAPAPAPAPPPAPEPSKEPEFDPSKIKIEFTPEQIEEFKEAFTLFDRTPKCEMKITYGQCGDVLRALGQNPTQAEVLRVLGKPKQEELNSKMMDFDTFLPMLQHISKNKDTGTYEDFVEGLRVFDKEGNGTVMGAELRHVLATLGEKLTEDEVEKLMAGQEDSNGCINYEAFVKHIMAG
# T1 sequence (Q3SZE5 whole entry partner): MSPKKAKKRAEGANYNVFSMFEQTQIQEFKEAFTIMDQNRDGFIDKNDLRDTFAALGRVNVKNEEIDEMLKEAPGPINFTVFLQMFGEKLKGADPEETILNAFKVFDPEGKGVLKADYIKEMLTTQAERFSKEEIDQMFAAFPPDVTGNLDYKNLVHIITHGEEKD
structure (smiles),measurement,setting,value
"CCc1nc(-c2ccc3c(c2)CC[C@H]3NC(=O)c2cnn(C)c2)no1 [(R)-N-(5-(5-ethyl-1,2,4-oxadiazol-3-yl)-2,3-dihydro-1H-inden-1-yl)-1-methyl-1H-pyrazole-4-carboxamide]",CDMF75 IC15,[1],400 nM
same,"IC10, plasma concentration for fractional shortening",[2],800 nM
